# Measured values: patent publication US20260262643A1, “HERBICIDAL BENZOXAZINES” (FMC CORPORATION, priority 2022, published 2026)
# What was measured:
# pigweed, palmer [1] = assay: Test C preemergence; type: in vivo, Amaranthus palmeri; settings: 0 to 100 scale (0 no effect, 100 complete control)
# Outline: (§1)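 Seeds sown in loam soil–sand blend received a directed preemergence soil spray of test chemical in non-phytotoxic solvent with surfactant; postemergence plants (2–10 cm, one- to two-leaf stage) were sprayed with the same formulation. Greenhouse-held 10 days, then visually rated for injury versus untreated controls, 0 (no effect) to 100 (complete control).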
# kochia [2] = assay: Test C postemergence; type: in vivo, Bassia scoparia; settings: 10 days
# Outline: as §1
# wheat [3] = assay: Test C postemergence; type: in vivo, Triticum aestivum; settings: 10 days
# Outline: as §1
# corn [4] = assay: Test C postemergence; type: in vivo, Zea mays; settings: 10 days
# Outline: as §1
# ragweed [5] = assay: Test C postemergence; type: in vivo, Ambrosia artemisiifolia; settings: 10 days
# Outline: as §1
# ragweed [6] = assay: Test C preemergence; type: in vivo, Ambrosia artemisiifolia; settings: 0 to 100 scale (0 no effect, 100 complete control)
# Outline: as §1
# ryegrass, Italian [7] = assay: Test C postemergence; type: in vivo, Lolium multiflorum; settings: 10 days
# Outline: as §1
# barnyardgrass [8] = assay: Test D flooded paddy test; type: in vivo, Echinochloa crus-galli; settings: 250 g ai/ha, applied to paddy water, visual rating after 13 to 14 days, scale 0 to 100 (0 no effect, 100 complete control)
# Outline: (§2)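 Visual ratings from 0, meaning no effect, to 100, meaning complete control, were assigned against untreated controls 13 to 14 days after compounds were added to the floodwater of pots kept 3 cm deep, with plants at the 2-leaf stage.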
# corn [9] = assay: Test C preemergence; type: in vivo, Zea mays; settings: 0 to 100 scale (0 no effect, 100 complete control)
# Outline: as §1
# barnyardgrass [10] = assay: Test C preemergence; type: in vivo, Echinochloa crusgalli; settings: 0 to 100 scale (0 no effect, 100 complete control)
# Outline: as §1
# green foxtail [11] = assay: Test C postemergence; type: in vivo, Setaria viridis; settings: 10 days
# Outline: as §1
# blackgrass [12] = assay: Test C postemergence; type: in vivo, Alopecurus myosuroides; settings: 10 days
# Outline: as §1
# oat, wild [13] = assay: Test C postemergence; type: in vivo, Avena fatua; settings: 10 days
# Outline: as §1
# wheat [14] = assay: Test C preemergence; type: in vivo, Triticum aestivum; settings: 0 to 100 scale (0 no effect, 100 complete control)
# Outline: as §1
# ryegrass, Italian [15] = assay: Test C preemergence; type: in vivo, Lolium multiflorum; settings: 0 to 100 scale (0 no effect, 100 complete control)
# Outline: as §1
# kochia [16] = assay: Test C preemergence; type: in vivo, Bassia scoparia; settings: 0 to 100 scale (0 no effect, 100 complete control)
# Outline: as §1
# blackgrass [17] = assay: Test C preemergence; type: in vivo, Alopecurus myosuroides; settings: 0 to 100 scale (0 no effect, 100 complete control)
# Outline: as §1
# sedge, umbrella = assay: Test D flooded paddy test; type: in vivo, Cyperus difformis; settings: 250 g ai/ha, applied to paddy water, visual rating after 13 to 14 days, scale 0 to 100 (0 no effect, 100 complete control)
# Outline: as §2
# barnyardgrass [18] = assay: Test C postemergence; type: in vivo, Echinochloa crusgalli; settings: 10 days
# Outline: as §1
# pigweed, palmer [19] = assay: Test C postemergence; type: in vivo, Amaranthus palmeri; settings: 10 days
# Outline: as §1
# soybean [20] = assay: Test C preemergence; type: in vivo, Glycine max; settings: 0 to 100 scale (0 no effect, 100 complete control)
# Outline: as §1
# horseweed = assay: Test C postemergence; type: in vivo, Erigeron canadensis; settings: 10 days
# Outline: as §1
# ducksalad = assay: Test D flooded paddy test; type: in vivo, Heteranthera limosa; settings: 250 g ai/ha, applied to paddy water, visual rating after 13 to 14 days, scale 0 to 100 (0 no effect, 100 complete control)
# Outline: as §2
# oat, wild [21] = assay: Test C preemergence; type: in vivo, Avena fatua; settings: 0 to 100 scale (0 no effect, 100 complete control)
# Outline: as §1
# rice = assay: Test D flooded paddy test; type: in vivo, Oryza sativa; settings: 250 g ai/ha, applied to paddy water, visual rating after 13 to 14 days, scale 0 to 100 (0 no effect, 100 complete control)
# Outline: as §2
# galium = assay: Test C postemergence; type: in vivo, Galium aparine; settings: 10 days
# Outline: as §1
# green foxtail [22] = assay: Test C preemergence; type: in vivo, Setaria viridis; settings: 0 to 100 scale (0 no effect, 100 complete control)
# Outline: as §1
# soybean [23] = assay: Test C postemergence; type: in vivo, Glycine max; settings: 10 days
# Outline: as §1
# [24] = Preemergence, 500 g ai/ha, visual rating after 10 days
# [25] = Test C, preemergence, 125 g ai/ha
# [26] = 125 g ai/ha, postemergence, 0 to 100 scale, 0 no effect, 100 complete control
# [27] = Postemergence, 500 g ai/ha, visual 0 to 100 scale (0 no effect, 100 complete control)
compound,measurement,setting,value
C[C@H]1CN(C(=O)c2cc(-n3cnc(C(C)(C)C)n3)cc3c2OCCO3)c2cccc(Cl)c2O1 [Compound 154],"Plant response rating, Pigweed, Palmer","pigweed, palmer [1]; [24]",100
same,"Pigweed, Palmer plant response rating","pigweed, palmer [1]; [25]",100
same,"Plant response rating, Kochia",kochia [2]; [26],100
same,"Plant response rating, Kochia",kochia [2]; [27],100
same,"Plant response rating, Wheat",wheat [3]; [26],10
same,"Plant response rating, Wheat",wheat [3]; [27],30
same,"Plant response rating, Corn",corn [4]; [26],20
same,"Plant response rating, Corn",corn [4]; [27],50
same,"Plant response rating, Ragweed",ragweed [5]; [26],100
same,"Plant response rating, Ragweed",ragweed [5]; [27],100
same,"Plant response rating, Ragweed",ragweed [6]; [24],100
same,Ragweed plant response rating,ragweed [6]; [25],50
same,"Plant response rating, Ryegrass, Italian","ryegrass, Italian [7]; [26]",30
same,"Plant response rating, Ryegrass, Italian","ryegrass, Italian [7]; [27]",70
same,"Plant response rating, Barnyardgrass (Flood)",barnyardgrass [8],15
same,"Plant response rating, Corn",corn [9]; [24],30
same,Corn plant response rating,corn [9]; [25],0
same,Barnyardgrass plant response rating,"barnyardgrass [10]; 125 g ai/ha, preemergence",70
same,"Plant response rating, Barnyardgrass",barnyardgrass [10]; [24],100
same,"Plant response rating, Foxtail, Green",green foxtail [11]; [26],40
same,"Plant response rating, Foxtail, Green",green foxtail [11]; [27],90
same,"Plant response rating, Blackgrass",blackgrass [12]; [26],20
same,"Plant response rating, Blackgrass",blackgrass [12]; [27],90
same,"Plant response rating, Oat, Wild","oat, wild [13]; [26]",10
same,"Plant response rating, Oat, Wild","oat, wild [13]; [27]",20
same,"Plant response rating, Wheat",wheat [14]; [24],60
same,Wheat plant response rating,wheat [14]; [25],10
same,"Plant response rating, Ryegrass, Italian","ryegrass, Italian [15]; [24]",90
same,"Ryegrass, Italian plant response rating","ryegrass, Italian [15]; [25]",70
same,"Plant response rating, Kochia",kochia [16]; [24],100
same,Kochia plant response rating,kochia [16]; [25],100
same,"Plant response rating, Blackgrass",blackgrass [17]; [24],60
same,Blackgrass plant response rating,blackgrass [17]; [25],20
same,"Plant response rating, Sedge, Umbrella (Flood)","sedge, umbrella",70
same,"Plant response rating, Barnyardgrass",barnyardgrass [18]; [26],20
same,"Plant response rating, Barnyardgrass",barnyardgrass [18]; [27],50
same,"Plant response rating, Pigweed, Palmer","pigweed, palmer [19]; [26]",90
same,"Plant response rating, Pigweed, Palmer","pigweed, palmer [19]; [27]",100
same,"Plant response rating, Soybean",soybean [20]; [24],100
same,Soybean plant response rating,soybean [20]; [25],40
same,"Plant response rating, Horseweed",horseweed; [26],80
same,"Plant response rating, Horseweed",horseweed; [27],70
same,"Plant response rating, Ducksalad (Flood)",ducksalad,10
same,"Plant response rating, Oat, Wild","oat, wild [21]; [24]",30
same,"Oat, Wild plant response rating","oat, wild [21]; [25]",20
same,"Plant response rating, Rice (Flood)",rice,10
same,"Plant response rating, Galium",galium; [26],100
same,"Plant response rating, Galium",galium; [27],100
same,"Plant response rating, Foxtail, Green",green foxtail [22]; [24],100
same,"Foxtail, Green plant response rating",green foxtail [22]; [25],100
same,"Plant response rating, Soybean",soybean [23]; [26],90
same,"Plant response rating, Soybean",soybean [23]; [27],100
